Experimental data taken from patent US8399609B2, “Treating or preventing extracellular matrix build-up” (RegeneRx Biopharmaceuticals, Inc., priority 2004, dated 2013).

System: Human Blood Platelets
Experiment: Platelet aggregation assay (Payton duo-channel aggregometer), PAF-16-induced aggregation in platelet-rich plasma
Assay type: cell-based
Conditions: agonist PAF-16 20 ng/ml
Protocol: Platelet Aggregation Assay
The inhibitory effects of Tβ4 on platelet aggregation were tested using a Payton duo-channel aggregometer. This aggregometer produces a plot of % light transmission (directly proportional to % aggregation) vs. time.
For each experiment, one 9 ml blood sample was drawn from a fasting, non-smoking, healthy subject into a propylene tube containing 1 ml of 3.8% sodium-citrate (anti-coagulant). This blood sample was then diluted with 2 ml of phosphate buffer (phosphate-buffer saline with 11 mM glucose and 3 mM sodium citrate). Dilution with phosphate buffer aids in stabilization of the platelet environment and retention of platelet activity for a longer period of time. Platelet-rich plasma (PRP) was prepared by centrifuging the blood for 3 min at 2300 RPM. After removal of PRP, the volume of the remaining blood was brought up to 10 ml by adding phosphate buffer, and the sample was once again centrifuged for the preparation of platelet-poor (PPP). To obtain PPP, we centrifuged the blood for 10 min at 2800 RPM.
Platelet aggregation tests were performed by recording % light transmission (vs. time) through samples of PRP. Before each assay, the aggregometer was adjusted such that PRP gave no light transmission. For aggregation assays, duplicate samples (0.4 ml) of PRP were incubated with 1 mM CaCl2 (to restore the physiologic concentration of Ca^++) for 1 min at 37° C. Different amounts of Tβ4, ranging for 20 to 300 ng, dissolved in 30 μl of distilled/deionized water, were added to each assay. The mixture was then incubated and stirred for an additional 2 min before aggregation was induced with an agonist.
Among the agonists used in the experiments were ADP, epinephrine, arachidonic acid, thrombin, collagen (Sigma Chemicals), and PAF (Platelet-activating factor)-16 (from Calbiochem). Concentrations of these reagents were 1 μm, 10 μm, 100 μg/ml, 0.2 NIH units, 0.05 mg/ml, and 20 ng/ml respectively. Two control assays were run at the beginning and end of each experiment. An assay without Tβ4 (but with an equivalent volume of H2O) constitutes a control, and the % light transmission produced by each control is assigned a value of % 100 for each experiment. For the measurement of % inhibition caused by Tβ4, light transmission in a Tβ4 assay was compared to the average light transmission in the start and end controls, using the following formula: […]

With “thymosin beta 4 (SDKPDMAEIEKFDKSKLKKTETQEKNPLPSKETIEQEKQAGES; Thymosin beta-4; UniProt P62328 2-44, looked up) [Tβ4]” the “Average % Inhibition of Aggregation” value (20 ng Tβ4 per assay (0.4 ml PRP)) was 50%, the “Average % Inhibition of Aggregation” value (40 ng Tβ4 per assay (0.4 ml PRP)) was 90% and the “Average % Inhibition of Aggregation” value (60 ng Tβ4 per assay (0.4 ml PRP)) was 100%. The “Average % Inhibition of Aggregation” value (80 ng Tβ4 per assay (0.4 ml PRP)) was 95%, the “Average % Inhibition of Aggregation” value (100 ng Tβ4 per assay (0.4 ml PRP)) was 92% and the “Average % Inhibition of Aggregation” value (300 ng Tβ4 per assay (0.4 ml PRP)) was 84%.
